Laboratory results: US9782489B2, “MetAP-2 inhibitor polymersomes for therapeutic administration” (priority 2007, dated 2017)
“Also recorded” adds a separate entry of the source.

How the values were obtained:
[1] = post-administration; cited from earlier work
[2] = high chemotherapeutic doses; cited from earlier work
[3] = in vivo; cited from earlier work
[4] = tested on: LLC tumors; test: Oral Lodamin vs free TNP-470, primary Lewis lung carcinoma tumor experiments; format: in vivo, C57Bl/6J mice; conditions: 30 mg/kg q.o.d. oral (TNP-470 equivalent), day 18, FIG. 9A; listed as free TNP-470
Description: For tumor experiments: LLC cells (1×10^6) or B16/F10 melanoma cells (1×10^6) were implanted subcutaneously in 8 week old C57Bl/6J male mice (Jackson Laboratories, Bar Harbor, Me.). Oral availability of free TNP-470 was compared to that of Lodamin. A dose of 30 mg/kg q.o.d. of free TNP-470 and an equivalent dose of Lodamin (Lodamin, 6 mg in 100 μl/d) were administered to LLC tumor bearing mice (˜100 mm^3) and tumor growth was followed for 18 d. Free drug was given as a suspension in double distilled water and freshly prepared before each dose. Additionally, we compared different doses and frequencies of Lodamin treatment: 15 mg/kg q.d., 15 mg/kg q.o.d. and 30 mg/kg q.o.d. To eliminate any possible effect of the vehicle (polymer without drug) one group of mice was given micelles without drug and tumor progression was compared to water treated mice.
For the melanoma tumor experiment, a dose of 15 mg/kg q.d. Lodamin was administered to B16/F10 melanoma bearing mice. In all experiments, tumor size and animal weight were monitored every 2 d. Tumor volume was measured with calipers in two diameters as follows: (width)×(length)×0.52. Note that all the above Lodamin doses are presented as TNP-470 equivalent.

[5] = tested on: obesity; conditions: mice; cited from earlier work
[6] = Balance beam motor coordination test (neurotoxicity); format: in vivo; conditions: 30 mg/kg q.o.d. for 14 d; Lodamin oral, free TNP-470 injected subcutaneously; vs water treated mice
Description: A slightly modified balance beam motor coordination test was performed on three groups of mice: Oral Lodamin treated mice (30 mg/kg eq. q.o.d.), free TNP-470 (30 mg/kg) subcutaneously injected mice and water treated mice (administered by gavage). The mice were pretreated for 14 d (n=4-5 per group) and then the mice were allowed to acclimate to the procedure room for 1 h, after which they were trained in 3 trials to cross a wide (20 mm width×1 m length) balance beam. All the mice crossed the wide beam without making foot-slip errors. The mice were then trained on a narrow (4 mm width×1 m length) beam for 3 trials. At the end of the training trials, no freezing behavior was observed, and the mice would start to walk within 4 seconds of being placed on the beam. The mice were then videotaped as they performed in 3 test trials of 3 beam crossings each—a total of 9 crossings per mouse. The 3 trials were separated by at least 1 h to avoid fatigue of the mice. Videotaped crossings were scored for number of foot-slip errors and time to cross. All experiments and scoring of the different groups were performed by an investigator who has been no knowledge regarding the treatment regime of the mice.

[7] = tested on: murine, human and metastatic tumors; conditions: mice; most studies 30 mg/kg subcutaneously every other day; cited from earlier work

6-O—(N-chloroacetylcarbamoyl) fumagillol [TNP-470]
time up to which detected in mice sera [1]: up to 2 h

COC1C(OC(=O)NC(=O)CCl)CCC2(CO2)C1[C@@]1(C)O[C@@H]1CC=C(C)C (stereo partly shown) [TNP-470, 6-O—(N-chloroacetylcarbamoyl) fumagillol]
adverse effects in patients [2]: neurotoxicity | plasma half-life of the drug [3]: a few minutes | plasma half-life of the metabolites [3]: less than 2 hr | inhibition of LLC tumor growth [4]: no inhibition; also recorded: no effect | effect on obesity [5]: prevent diet-induced and genetic obesity | balance beam performance (foot-slip errors) [6]: over twice as many errors | inhibition of growth of human tumors [7]: up to 100% | inhibition of growth of metastatic tumors [7]: up to 100% | inhibition of growth of murine tumors [7]: up to 91%
